Reference: patent publication EP0624315B1, “Diaryl(pyridinio and isoquinolinio) boron fungicidal agents” (AMERICAN CYANAMID COMPANY, priority 1993, dated 1994)

Experiments:
Venturia inaequalis = test: In vivo fungicidal evaluation, Apple Scab; conditions: 200 ppm, host plants sprayed, dried, then inoculated; further: ranges in brackets are in %
Plasmopara viticola = test: In vivo fungicidal evaluation, Grape Downy Mildew; conditions: 200 ppm, host plants sprayed, dried, then inoculated; further: ranges in brackets are in %
Botrytis cinerea = test: In vivo fungicidal evaluation, Pepper Botrytis; conditions: 200 ppm, host plants sprayed, dried, then inoculated; further: ranges in brackets are in %
Pyricularia oryzae = type: in vivo; conditions: 200 ppm, host plants sprayed, dried, then inoculated
Cercospora beticola = test: In vivo fungicidal evaluation, Sugar Beet Cercospora; conditions: 200 ppm, host plants sprayed, dried, then inoculated; further: ranges in brackets are in %
Alternaria solani = test: In vivo fungicidal evaluation, Tomato Early Blight; conditions: 200 ppm, host plants sprayed, dried, then inoculated; further: ranges in brackets are in %
[1] = system: Puccinia recondita f. sp. tritici; test: In vivo fungicidal evaluation, Wheat Leaf Rust; conditions: 200 ppm, host plants sprayed, dried, then inoculated; further: ranges in brackets are in %
[2] = system: Erysiphe graminis f. sp. tritici; test: In vivo fungicidal evaluation, Wheat Powdery Mildew; conditions: 200 ppm, host plants sprayed, dried, then inoculated; further: ranges in brackets are in %
[3] = system: Fusarium oxysporum f. sp. cucumerinum (Fusoxc); test: In vitro fungicidal evaluation, mycelial growth inhibition in nutrient broth; type: cell-based; conditions: 25 ppm, 3-4 days at 21°C, rated visually; further: ranges in brackets are in %
Method: (§1) Test compounds are dissolved or suspended in acetone and dispersed into cell well plates containing a suspension of ground fungal mycelia in a nutrient broth. Assay plates are incubated for 3-4 days at 21°C. Growth inhibition is measured visually and is rated using the following scale:
(§2) Untreated controls, solvent blanks and reference standards are included in each test.
(§3) Assay fungi include the plant pathogens, Pythium ultimum (Pythul); Rhizoctonia solani (Rhizso); Fusarium oxysporum f. sp. cucumerinum (Fusoxc); and Pseudocercosporella herpotrichoides (Psdche).
(§4) When more than one test is run, the data are averaged. The compouds evaluated are reported by compound number given in Example 5.

[4] = system: Pseudocercosporella herpotrichoides (Psdche); test: as above; type: cell-based; conditions: 25 ppm, 3-4 days at 21°C, rated visually; further: ranges in brackets are in %
Method: as §1, §2, §3, §4

Pythium ultimum (Pythul) = test: as above; type: cell-based; conditions: 25 ppm, 3-4 days at 21°C, rated visually; further: ranges in brackets are in %
Method: as §1, §2, §3, §4

[5] = system: Rhizoctonia solani (Rhizso); test: as above; type: cell-based; conditions: 25 ppm, 3-4 days at 21°C, rated visually; further: ranges in brackets are in %
Method: as §1, §2, §3, §4

[6] = system: Spodoptera eridania 3rd instar larvae, southern army-worm; test: Insecticide evaluation, southern armyworm leaf dip; type: in vivo; conditions: 1000 ppm, 5 days
Method: (§5) The following tests show the efficacy of the compounds as insecticides and acaricides. The evaluations are conducted with solutions of test compounds dissolved or dispersed in 50/50 acetone/water mixtures. The test compound is technical material dissolved or dispersed in said acetone/water mixtures in sufficient amounts to provide the concentrations set forth in Table I below. All concentrations reported herein are in terms of active ingredient. All tests are conducted in a laboratory maintained at about 27 °C. The rating system employed is as follows:
A sieva lima bean leaf expanded to 7 to 8 cm in length is dipped in the test suspension with agitation for 3 seconds and placed in a hood to dry. The leaf is then placed in a 100x10 mm petri dish containing a damp filter paper on the bottom and 10 3rd instar caterpillars. The dish is maintained for 5 days before observations are made of mortality, reduced feeding or any interference with normal moulting.

[7] = system: Tetranychus urticae (OP-resistant strain), 2-spotted spider mite; test: Acaricide evaluation, 2-spotted spider mite plant dip; type: in vivo; conditions: 300 ppm, 2 days, adult kill
Method: as §5
Sieva lima bean plants with primary leaves expaned to 7 to 8 cm are selected and cut back to one plant per pot. A small piece is cut from a leaf taken from the main colony and placed on each leaf of the test plants. This is done about 2 hours before treatment to allow the mites to move over to the test plant and to lay eggs. The size of the cut piece is varied to obtain about 100 mites per leaf. At the time of the treatment, the piece of leaf used to transfer the mites is removed and discarded. The mite-infested plants are dipped in the test formulation for 3 seconds with agitation and set in the hood to dry. Plants are kept for 2 days before estimates of adult kill are made.

[8] = system: Diabrotica undecimpunctata howardi, 3rd instar southern corn rootworm; test: Insecticide evaluation, southern corn rootworm soil test; type: in vivo; parameters: key: 0 = no effect; 1 = 10-25% kill; 2 = 26-35% kill; 3 = 36-45% kill; 4 = 46-55% kill; 5 = 56-65% kill; 6 = 66-75% kill; 7 = 76-85% kill; 8 = 86-99% kill; 9 = 100% kill; - = No evaluation; conditions: 50 kg/ha (1.25 mg active ingredient per jar), 6 days
Method: as §5
One cc of fine talc is placed in a 30 mL wide-mouth screw-top glass jar. One mL of the appropriate acetone test solution is pipetted onto the talc so as to provide 1.25 mg of active ingredient per jar. The jars are set under a gentle air flow until the acetone is evaporated. The dried talc is loosened, 1 cc of millet seed is added to serve as food for the insects and 25 mL of moist soil is added to each jar. The jars are capped and the contents thoroughly mixed on a Vortex Mixer. Following this, ten 3rd instar rootworms are added to each jar and the jars are loosely capped to allow air exchange for the larvae. The treatments are held for 6 days before mortality counts are made. Missing larvae are presumed dead, since they decompose rapidly and can not be found. The concentration used in this test corresponds to approximately 50 kg/ha.

Molecule	AS (Apple Scab) disease control rating (Venturia inaequalis)	GDM (Grape Downy Mildew) disease control rating (Plasmopara viticola)	PB (Pepper Botrytis) disease control rating (Botrytis cinerea)	RB (Rice Blast) disease control rating (Pyricularia oryzae)	SBC (Sugar Beet Cercospora) disease control rating (Cercospora beticola)	TEB (Tomato Early Blight) disease control rating (Alternaria solani)	WLR (Wheat Leaf Rust) disease control rating [1]	WPM (Wheat Powdery Mildew) disease control rating [2]	FUSOXC growth inhibition rating [3]	PSDCHE growth inhibition rating [4]	PHTHUL growth inhibition rating (Pythium ultimum (Pythul))	RHIZSO growth inhibition rating [5]	Southern Armyworm kill rating [6]	OP. Res. Mites kill rating [7]	Southern Corn Rootworm kill rating [8]
C[B-](c1ccccc1)(c1ccccc1)[n+]1cccc(Br)c1 [Compound 18, (3-Bromopyridinio)methyldiphenylboron]	0 (0)	4 (45 - 59)	8 (96 - 99)	5 (60 - 74)	6 (75 - 89)	4 (45 - 59)	0 (0)	0 (0)	7 (90 - 99)	9 (100)	7 (90 - 99)	7 (90 - 99)	9 (9 = 100% kill)	7 (7 = 76-85% kill)	0
(3-Ethyl-4-methylpyridinio)methyldiphenylboron [Compound 5]	0 (0)	9 (100)	0 (0)	0 (0)	0 (0)	8 (96 - 99)	8 (96 - 99)	9 (100)	9 (100)	9 (100)	9 (100)	9 (100)	9 (9 = 100% kill)	8 (8 = 86-99% kill)	9 (9 = 100% kill)
Bis(p-fluorophenyl)(isoquinolinio)methylboron [Compound 13]	7 (90 - 95)	9 (100)	9 (100)	7 (90 - 95)	8 (96 - 99)	8 (96 - 99)	7 (90 - 95)	8 (96 - 99)	9 (100)	9 (100)	9 (100)	9 (100)	–	–	–
Bis(p-fluorophenyl)methyl(5-nitroisoquinolinio)boron [Compound 15]	9 (100)	0 (0)	9 (100)	3 (30 - 44)	7 (90 - 95)	4 (45 - 59)	0 (0)	0 (0)	9 (100)	9 (100)	9 (100)	9 (100)	–	–	–
Butoxy(3-methylpyridinio)diphenylboron [Compound 10]	0 (0)	3 (30 - 44)	6 (75 - 89)	0 (0)	0 (0)	0 (0)	0 (0)	0 (0)	9 (100)	7 (90 - 99)	9 (100)	9 (100)	–	–	–
Butoxy(4-isopropylpyridinio)diphenylboron [Compound 11]	8 (96 - 99)	0 (0)	4 (45 - 59)	0 (0)	0 (0)	0 (0)	0 (0)	0 (0)	9 (100)	7 (90 - 99)	9 (100)	9 (100)	–	–	–
Butoxy(4-methylpyridinio)diphenylboron [Compound 9]	0 (0)	0 (0)	6 (75 - 89)	0 (0)	0 (0)	0 (0)	0 (0)	0 (0)	9 (100)	0 (0)	9 (100)	0 (0)	–	–	–
Chloro(isoquinolinio)di-p-tolylboron [Compound 12]	0 (0)	0 (0)	0 (0)	0 (0)	7 (90 - 95)	0 (0)	0 (0)	0 (0)	7 (90 - 99)	5 (60 - 89)	7 (90 - 99)	7 (90 - 99)	–	–	–
Hydroxy(3-butylpyridinio)diphenylboron [Compound 7]	6 (75 - 89)	0 (0)	0 (0)	6 (75 - 89)	0 (0)	0 (0)	5 (60 - 74)	5 (60 - 74)	9 (100)	0 (0)	9 (100)	9 (100)	–	–	–
Hydroxy(4-isopropylpyridinio)diphenylboron [Compound 8]	0 (0)	4 (45 - 59)	0 (0)	6 (75 - 89)	0 (0)	0 (0)	0 (0)	0 (0)	9 (100)	0 (0)	9 (100)	7 (90 - 99)	–	–	–
